Source: patent US20060111368A1, “Phosphodiesterase inhibitor” (Kyowa Hakko Kogyo Co., Ltd., priority 2002, published 2006)
Where a name gives a salt, the structure may show the parent alone.

Columns and labels:
[1] = system: MDA-MB-231 (human breast cancer cell); experiment: Cell growth inhibitory activity (MTT-type colorimetric assay); assay type: cell-based; conditions: MDA-MB-231, 72 h, 10 μmol/L, 3 days of culture
Method: Cell Growth Inhibitory Activity
Cell growth inhibitory activity of compound 12 was examined on MDA-MB-231 (human breast cancer cell: American Type Culture Collection) using an in-vitro cell growth assay [3-(4,5-dimethylthiazol-2-yl)-2,5-diphenyl tetrazolium bromide (MTT)]-type calorimetric assay [Leukemia, vol. 7, p. 1637, (1993)].
MDA-MB-231 (2.5×10^4 cells/mL, 270 μL) was inoculated on a 48-well plate, and cultured overnight. In the culture, Leibovitz's L-15 (Gibco) containing. 10% fetal calf serum (Hi-Clone), 0.05 units/mL of penicillin (Gibco) and 0.05 μg/mL of streptomycin (Gibco) was used as a culture medium. 30 μL of compound 12 dissolved in the same medium containing 0.1% dimethyl sulfoxide (DMSO; Wako Pure Chemical Industries) was added to each well. After 3 days of culture, 30 μL of MTT (Dojin Kagaku Kenkyusho, adjusted to a concentration of 5 mg/mL with PBS) was added to each well. After 4 hours of culture, 900 μL of DMSO was added to dissolve the cells. The cell solution was moved to a 96-well plate in amounts of 200 μL each, and fluorescence intensity OD590-630was measured with an automated microplate reader EL340 (Biotech Instruments). […] (medium containing 0.1% DMSO alone was added) and OD (blank) is fluorescence intensity (OD590-630) of the same medium containing 0.1% DMSO. […]

[2] = system: 6-hydroxydopamine (6OHDA)-treated rats; experiment: Test for activity to hyperkinesia in 6-hydroxydopamine (6OHDA)-treated rats; assay type: in vivo, rat; conditions: 50 mg/kg test compound intraperitoneally, then L-DOPA 30 mg/kg and benserazide 7.5 mg/kg orally; vehicle group 1,298±193; 180° rotation = 1 count
Method: Test for Activity to Hyperkinesia in 6-hydroxydopamine (6OHDA)-Treated Rats
When the unilateral nigrostriatal pathway is lesioned with 6-OHDA, sensitivity of dopamine receptors in the striatum on the lesioned side is increased. When a dopamine activity enhancing substance such as L-DOPA is administered thereto, a rotating behavior takes place on the side opposite to the lesioned side. This animal model has been long positioned as an excellent test model of Parkinson's disease, and has been used for research of therapeutic agent for Parkinson's disease [Neurol. Neurobiol. vol. 33, p. 1 (1987)]. […]
After withdrawal of the administration of apomorphine for 14 days, L-DOPA and bensetazide were orally administered to the rats at doses of 100 mg/kg and 25 mg/kg respectively to induce hyperkinesia. At this time, the number of rotations was measured for 60 minutes immediately after the administration. […]
After 7 days from the dividing into groups, the number of rotations for 60 minutes was measured by similar manner as that of above-mentioned. […] Immediately after the administration, 30 mg/kg of L-DOPA and 7.5 mg/kg of benserazide were orally administered to A and B groups, and the number of rotations for 60 minutes was measured every 5 minutes. […]

With `Cc1c(-c2ccc(-c3ccccc3CN3CCOCC3)cc2)nc2ccc(F)cc2c1CO` [Compound 12, 6-Fluoro-4-hydroxymethyl-3-methyl-2-(2′-morpholinomethylbiphenyl-4-yl)quinoline dihydrochloride] the inhibition at 10 µM [1] was 39% and the “total number of rotations for 60 minutes” value [2] was 48±20.
